Where two headings read alike, the source gives them in different places.
Key:
[1] = Plasma protein binding by rapid equilibrium dialysis (human plasma); format: in vitro ADME
Description: (§1) A 200 μL spiked samples and 400 μL PBS were placed into the “sample” and “buffer” chambers of the RED device, respectively. After 4-h incubation to equilibrate between the buffer and plasma compartments, the RED plate was sampled from both compartments. The samples were matrix-matched for analysis by addition of either diluted plasma or buffer; (a) blank diluted plasma added to the buffer samples and (b) blank buffer added to the diluted plasma sample, at a ratio of 50:50 v/v. The unbound fractions in microsomes and diluted plasma were determined by dividing the analyte/IS peak area ratios of the (a) sample by those of the (b) sample. The unbound fraction in diluted plasma (fu,d) was converted to the unbound fraction in undiluted plasma (fu) using a Kalvass equation as below (DF: dilution factor). (1) fu=1/DF/[(1/fu,d)−1]+1/DF

[2] = Plasma protein binding by rapid equilibrium dialysis (rat plasma); format: in vitro ADME, Sprague-Dawley rat
Description: as §1

[3] = Microsomal protein binding by rapid equilibrium dialysis (RLM); format: in vitro ADME, rat
Description: as §1

[4] = Blood-to-plasma concentration ratio (rat whole blood); format: in vitro ADME; conditions: RPG and QCT 5 μM each
Description: A plasma sample was obtained by centrifugation of the blood sample at 2000× g for 5 min.

[5] = In vitro microsomal metabolism of RPG (disappearance) in RLM; format: in vitro ADME, rat; conditions: RLM 0.3 mg/mL, 1–500 μM RPG, Michaelis–Menten fit
Description: (§2) At 0, 30, and 60 min after starting the metabolic reaction, a 50 μL aliquot of the incubation mixture was sampled and transferred to a clean 1.5-mL microcentrifuge tube containing 150 μL of ice-cold acetonitrile to terminate the metabolic reaction.
(§3) The intrinsic metabolic clearance (CLint) was calculated as Vmax/Km. […] Max and Min are the initial and final Y values, respectively, and the power P represents the Hill coefficient. […] Vmax and Km are the same as those defined in Equation (2). The parameter α is indicative of the inhibition type. The mixed model is a general equation that includes competitive, uncompetitive, and noncompetitive inhibition as special cases. When α = 1, the mixed model is identical to a noncompetitive inhibition. When α is very large (α→∞) or very small (α→0), the mixed model becomes identical to competitive inhibition or uncompetitive inhibition, respectively.

[6] = In vitro microsomal metabolism of RPG (disappearance) in HLM; format: in vitro ADME, human; conditions: for Km: human, human liver microsomes
Description: as §2, §3

[7] = tested on: microsomal metabolism of RPG in RLM; assay: In vitro inhibition of RPG metabolism by QCT in RLM; format: in vitro ADME, rat; conditions: RLM
Description: The intrinsic metabolic clearance (CLint) was calculated as Vmax/Km. […] The parameter α is indicative of the inhibition type. The mixed model is a general equation that includes competitive, uncompetitive, and noncompetitive inhibition as special cases. When α = 1, the mixed model is identical to a noncompetitive inhibition. When α is very large (α→∞) or very small (α→0), the mixed model becomes identical to competitive inhibition or uncompetitive inhibition, respectively.

[8] = In vivo intravenous pharmacokinetic study of RPG without or with QCT in rats; parameters: species or system Sprague-Dawley rats; conditions: for AUC / clearance / half-life / Vd: Sprague-Dawley, rat, plasma, 0.4 mg/kg; for Vd: read-out: Vss
Description: Rats were anesthetized via intramuscular injection of 10 mg/kg zoletil. The femoral vein and artery of the rats were cannulated using a polyethylene tube (BD Medical, Franklin Lakes, NJ, USA). […] The vehicle solutions for the intravenous and oral doses were composed of PEG 400 and aqueous 0.3% CMC solution (50:50 v/v). Approximately 300 μL of blood was collected via the femoral artery at 0, 1, 5, 15, 30, 60, 90, 120, 180, and 240 min after intravenous injection and at 10, 20, 30, 45, 60, 90, 120, 180, and 240 min after oral administration.
Non-compartmental analysis (WinNonlin, version 3.1, NCA200 and 201; Certara, Inc., Princeton, NJ, USA) was conducted to estimate the following pharmacokinetic parameters: total area under the plasma concentration–time curve from time zero to time infinity (AUC); total body clearance (CL, calculated as dose/AUC); terminal half-life (t1/2); and apparent volume of distribution at steady state (Vss). For comparison, the extent of absolute oral bioavailability (F; expressed as percent of dose administered) was calculated by dividing the dose-normalized AUC after oral administration by the dose-normalized AUC after intravenous injection. The peak plasma concentration (Cmax) and time to reach Cmax (Tmax) were obtained directly from the measured experimental data.

[9] = In vivo oral pharmacokinetic study of RPG without or with QCT in rats; parameters: species or system Sprague-Dawley rats; conditions: for bioavailability: read-out: F (absolute oral bioavailability)
Description: Rats were anesthetized via intramuscular injection of 10 mg/kg zoletil. The femoral vein and artery of the rats were cannulated using a polyethylene tube (BD Medical, Franklin Lakes, NJ, USA). […] The vehicle solutions for the intravenous and oral doses were composed of PEG 400 and aqueous 0.3% CMC solution (50:50 v/v).
For comparison, the extent of absolute oral bioavailability (F; expressed as percent of dose administered) was calculated by dividing the dose-normalized AUC after oral administration by the dose-normalized AUC after intravenous injection. The peak plasma concentration (Cmax) and time to reach Cmax (Tmax) were obtained directly from the measured experimental data.

[10] = humans; cited from earlier work
[11] = RPG 0.4 mg/kg iv, QCT 25 mg/kg iv
[12] = iv, RPG 0.4 mg/kg iv with QCT 25 mg/kg iv
[13] = iv, RPG 0.4 mg/kg iv, RPG alone
[14] = Sprague-Dawley, rat, plasma, po, 0.4 mg/kg, rats, RPG 0.4 mg/kg oral with QCT 100 mg/kg oral
[15] = Sprague-Dawley, rat, plasma, po, 0.4 mg/kg, rats, RPG 0.4 mg/kg oral, RPG alone
[16] = rats, RPG 0.4 mg/kg oral with QCT 100 mg/kg oral
[17] = rats, RPG 0.4 mg/kg oral, QCT 100 mg/kg oral
[18] = rats, RPG 0.4 mg/kg oral, RPG alone

Change of fuP of RPG by the presence of QCT ([1]; human plasma, RPG and QCT 5 μM each): not significantly altered | fraction unbound at 4 h, 5 μM ([1]; human, plasma (20-fold diluted), read-out: fuP (unbound fraction in plasma)): 0.0533 ± 0.006 | fraction unbound at 4 h, 5 μM ([2]; Sprague-Dawley, rat, plasma (20-fold diluted), read-out: fuP (unbound fraction in plasma)): 0.0761 ± 0.0094 | Change of fuP of RPG by the presence of QCT ([2]; rat plasma, RPG and QCT 5 μM each): not significantly altered | Change of fuMIC of RPG by the presence of QCT ([3]; RLM, RPG and QCT 5 μM each): not significantly altered | fraction unbound at 4 h, 5 μM ([3]; rat, liver microsomes, read-out: fuMIC (unbound fraction in liver microsomes)): 0.671 ± 0.009 | Change of RB of RPG by the presence of QCT [4]: not significantly altered | Vmax, metabolism of RPG [5]: 3070 ± 960 pmol/min/mg protein | Vmax, metabolism of RPG ([6]; HLM 0.3 mg/mL, 1–500 μM RPG, Michaelis–Menten fit): 2850 ± 417 pmol/min/mg protein | Km ([6]; Km, metabolism of RPG, HLM 0.3 mg/mL, 1–500 μM RPG, Michaelis–Menten fit): 27 to 69.4 µM | Km ([6]; Table S3, source Figure 3, read-out: Km used for estimation of R): 27 µM | Km of RPG metabolism in the Ki estimation study ([7]; QCT 0 μM): 53 µM | Km of RPG metabolism in the Ki estimation study ([7]; QCT 200 μM): 81 µM | Hepatic availability (FH) ([8]; 1 − EH): 0.818–0.886 | AeU ([8]; RPG 0.4 mg/kg iv with QCT 25 mg/kg iv): 1.32 ± 0.88 % of dose | AUC of RPG higher with concurrent QCT than in control rats [8, 11]: 83.4% | CL of RPG lower with concurrent QCT than in control rats [8, 11]: 44.9% | Difference in Vss of RPG between QCT and control groups [8, 11]: no significant differences | t1/2 of RPG higher with concurrent QCT than in control rats [8, 11]: 40.8% | AeU ([8]; RPG 0.4 mg/kg iv, RPG alone): 1.60 ± 0.77 % of dose | Increase of AUC of intravenous RPG after concurrent QCT ([8]; RPG iv with QCT iv vs RPG alone): 1.83 fold | AUC [8, 12]: 1550 ng·h/mL | clearance [8, 12]: 4.36 ± 0.54 mL/min/kg | half-life [8, 12]: 57.4 ± 10.6 min | Vd [8, 12]: 0.269 ± 0.025 L/kg | AUC [8, 13]: 845 ng·h/mL | clearance [8, 13]: 7.92 ± 0.47 mL/min/kg | half-life [8, 13]: 40.8 ± 4.2 min | Vd [8, 13]: 0.293 ± 0.018 L/kg | Urinary and fecal excretion of RPG administered intravenously ([8]; iv): ≤ 1.60 % of the dose | Hepatic clearance CLH (blood clearance, CL/RB) ([8]; iv RPG alone, assuming exclusive hepatic metabolism): 9.11 mL/min/kg | AUC [9, 14]: 803 ng·h/mL | Cmax [9, 14]: 238 ± 76 ng/mL | half-life [9, 14]: 148 ± 49 min | bioavailability [9, 14]: 95.1% | Cmax [9, 15]: 129 ± 33 ng/mL | half-life [9, 15]: 139 ± 66 min | bioavailability [9, 15]: 50.7% | Tmax ([9]; Sprague-Dawley, rat, plasma, po, 0.4 mg/kg, read-out: Tmax, median (range) (converted)): 45 min | AeGI [9, 16]: 2.90 ± 2.50 % of dose | AeU [9, 16]: 0.371 ± 0.336 % of dose | Tmax, median (range) [9, 16]: 45 (30–60) min | AUC of RPG higher with concurrent QCT than in control rats [9, 17]: 87.6% | Cmax of RPG higher with concurrent QCT than in control rats [9, 17]: 84.2% | AeGI [9, 18]: 3.41 ± 1.65 % of dose | AeU [9, 18]: 0.458 ± 0.441 % of dose | Increase of AUC of orally administered RPG by oral QCT ([9]; rats, RPG oral with QCT 100 mg/kg oral vs RPG alone): 1.88 fold | Intestinal availability (FG) ([9]; rats, from F = Fabs × FG × FH with Fabs assumed 1): 0.572–0.620 | Fecal excretion of oral RPG ([9]; rats, oral): 2.21–5.78 % of the dose administered
Compound: CCOc1cc(CC(=O)N[C@@H](CC(C)C)c2ccccc2N2CCCCC2)ccc1C(=O)O [RPG, Repaglinide]
F of RPG [10]: approximately 62.5%

From paper PMC8224802 (Pharmaceutics, 2021)
